# According to patent US20070066636A1, “POLYMORPHS OF TARTRATE SALT OF 2-[2-(3-(R)-AMINO-PIPERIDIN-1-YL)-5-FLUORO-6-OXO-6H-PYRIMIDIN-1-YLMETHYL]-BENZONITRILE AND METHODS OF USE THEREFOR” (priority 2005, published 2007):
# Where a name gives a salt, the structure may show the parent alone.
# Legend:
# Assay type in all cases: physicochemical
# [1] = Slurry interconversion studies in methanol; settings: room temperature; for XRPD Result after slurry: slurry time 5 days
# Description: Slurry Experiments: Enough Compound I was added to a given solvent so that undissolved solids were present. The mixture was then agitated in a sealed vial at ambient temperature using either an orbital shaker or a rotating wheel. After several days the solids were isolated by vacuum filtration and allowed to dry at ambient temperature in the fume hood with the cap for the sample vial loosened.
# In order to determine the relative stability of the polymorphs Compound I form A was slurried in separate experiments with roughly equal amounts of forms B, C and E in methanol at room temperature. After 12 days the solids were isolated and form A was recovered as the exclusive solid phase (Table 6). In addition to these experiments, slurries of forms B, C and D in the absence of other solid phases provided form A when slurried for 5 days in methanol at room temperature. […] It should be noted that the hydration states of these solid phases may be different for the different forms, which precludes an analysis of the true thermodynamic stability ordering through slurry experiments.
# [2] = Thermal analysis (TGA/DSC), thermal stability
# Description: Thermogravimetric analyses (TGA) were carried out on a TA Instruments 2950 thermogravimetric analyzer. The calibration standards were nickel and Alumel™. Samples were placed in an aluminum sample pan, inserted into the TG furnace, and accurately weighed. The samples were heated in a stream of nitrogen at a rate of 10° C./min. The temperature of the furnace was equilibrated at 25° C. prior to the analysis of the samples. The percent mass loss values provided in the tables are rounded to the nearest 0.1%.
# Differential scanning calorimetry (DSC) analyses were carried out on a TA Instruments differential scanning calorimeter 2920. Accurately weighed samples were placed in either crimped pans, crimped pans with manual pinhole or uncrimped pans to allow for pressure release. Each sample was heated under nitrogen at a rate of 10° C./min to 350° C. Indium metal was used as the calibration standard. Temperatures are reported at the transition maxima and reported to one decimal place, and the integrated events are expressed in J/g and rounded to the nearest whole number.
# [3] = Relative humidity (RH) stress of solids, XRPD; settings: for XRPD Pattern after RH stress: ambient, 21 d
# Description: Relative Humidity (RH) Stress: Open vials containing solid samples were placed inside chambers containing saturated salt solutions along with a small amount of the undissolved salt. The chambers were sealed and allowed to stand at ambient temperature for several weeks. Samples were analyzed by X-ray powder diffraction (XRPD) immediately after removing the sample from the RH chamber. The RH values for these salt solutions were obtained from an ASTM standard. See a) “Preparation and Use of Relative Humidity Chambers” SSCI Method MTD 032.01 Mar. 3, 2003; and b) “Standard Practice for Maintaining Constant Relative Humidity by Means of Aqueous Solutions” ASTM Standard E 104-02 (2002).
# [4] = Solubility estimates in different solvents; settings: thermodynamic from solid, ambient temperature, visual estimate
# Description: A weighed sample (typically about 20 mg) of Compound I form A was treated with aliquots of the test solvent at ambient temperature. The aliquot volumes were typically 250 μL. Periodically, the mixture was sonicated between additions to facilitate dissolution. Complete dissolution of the test material was determined by visual inspection. Solubilities were estimated from these experiments based on the total solvent used to provide complete dissolution. […] If dissolution occurred after the last aliquot was added then solubility is expressed as “greater than or equal to” (≧). The solubility values for Compound I (Table 4) have been rounded to the nearest whole number. The true equilibrium solubilities for the compound may be different than the values provided here because of the use of solvent aliquots that were too large or due to a slow rate of dissolution.
# [5] = Moisture sorption/desorption analysis; settings: for solid form of post moisture sorption/desorption sample by XRPD: after 5%-95%-5% RH cycle; for molecules of water present for every molecule of compound: at 95% RH, calculated from desorption weight change and molecular weight; for Weight Change: 25 C
# Description: Moisture sorption/desorption data were collected on a VTI SGA-100 Vapor Sorption Analyzer. Sorption and desorption data were collected over a range of 5% to 95% relative humidity (RH) at 10% RH intervals under a nitrogen purge. Sodium chloride (NaCl) and polyvinylpyrrolidone (PVP) were used as the calibration standards. Equilibrium criteria used for analysis were less than 0.0100% weight change in 5 minutes, with a maximum equilibration time of 180 minutes if the weight criterion was not met. The plotted data that contain the percent weight change values at various RH intervals are relative to the initial weight of the sample. The plotted data have not been corrected for the initial moisture content. However, the weight gain data provided in the tables for the various relative humidity ranges are calculated using the sample weight at the beginning of the particular RH event as the initial weight. In particular, the equilibration event wt. % change from initial wt. to 5% RH was calculated as [(wt at 5% RH−initial wt.)/initial wt.]*100; and the sorption event wt. % change from 5% RH to 95% RH was calculated as [(wt. at 95% RH−wt at 5% RH)/wt at 5% RH]*100; and the desorption event wt. % change from 95% RH to 5% RH was calculated as [(wt. at 5% RH−wt at 95% RH)/wt at 95% RH]*100. This type of analysis permits direct comparison of the experimental weight changes to the theoretical values predicted for the inter-conversion of anhydrates to hydrated forms.
# [6] = desorption, 95% RH to about 5% RH, Tables 2A, 2B (relative to weight at start of the event)
# [7] = equilibration, initial weight to about 5% RH, Tables 2A, 2B (relative to weight at start of the event)
# [8] = sorption, 5% RH to about 95% RH, Tables 2A, 2B (relative to weight at start of the event)
# [9] = after desorption at about 5% RH, Tables 2C-2F (values fit change relative to initial weight)
# [10] = after equilibration at about 5% RH, Tables 2C-2F (values fit change relative to initial weight)
# [11] = after sorption at about 95% RH, Tables 2C-2F (values fit change relative to initial weight)
smiles,measurement,setting,value
"N#Cc1ccccc1Cn1c(N2CCC[C@@H](N)C2)ncc(F)c1=O [Form A, tartrate salt of 2-[2-(3-(R)-amino-piperidin-1-yl)-5-fluoro-6-oxo-6H-pyrimidin-1-ylmethyl]-benzonitrile]",relative stability of polymorphs,[1],"more stable than form B, C, D, or E"
same,XRPD Pattern after heating,[2]; TGA to 150° C. & recovered,Form A
same,thermally stable up to,[2]; thermal analysis,about 200 °C
same,XRPD Pattern after RH stress,[3]; 58% RH stress,Form A
same,XRPD Pattern after RH stress,[3]; 75% RH stress,Form A
same,XRPD Pattern after RH stress,[3]; 84% RH stress,Form A
same,phase change upon RH stress,"[3]; various RH conditions, room temperature, several weeks",none of these samples had undergone a phase change
same,solubility,"[4]; organic solvent or mixture, 1,4-dioxane",< 3000 µg/mL
same,solubility,"[4]; organic solvent or mixture, acetone",< 4000 µg/mL
same,solubility,"[4]; organic solvent or mixture, acetonitrile",< 3000 µg/mL
same,solubility,"[4]; organic solvent or mixture, chloroform",< 4000 µg/mL
same,solubility,"[4]; organic solvent or mixture, dichloromethane",< 3000 µg/mL
same,solubility,"[4]; organic solvent or mixture, diisopropyl ether",< 3000 µg/mL
same,solubility,"[4]; organic solvent or mixture, dimethylformamide",≥ 81000 µg/mL
same,solubility,"[4]; organic solvent or mixture, ethanol",< 3000 µg/mL
same,solubility,"[4]; organic solvent or mixture, ethyl acetate",< 3000 µg/mL
same,solubility,"[4]; organic solvent or mixture, hexafluoroisopropanol",≥ 80000 µg/mL
same,solubility,"[4]; organic solvent or mixture, hexanes",< 3000 µg/mL
same,solubility,"[4]; organic solvent or mixture, isopropanol",< 3000 µg/mL
same,solubility,"[4]; organic solvent or mixture, isopropyl acetate",< 3000 µg/mL
same,solubility,"[4]; organic solvent or mixture, methanol",≥ 16000 µg/mL
same,solubility,"[4]; organic solvent or mixture, methyl ethyl ketone",< 3000 µg/mL
same,solubility,"[4]; organic solvent or mixture, nitromethane",< 3000 µg/mL
same,solubility,"[4]; organic solvent or mixture, tetrahydrofuran",< 3000 µg/mL
same,solubility,"[4]; organic solvent or mixture, toluene",< 3000 µg/mL
same,solubility,"[4]; organic solvent or mixture, trifluoroethanol",≥ 81000 µg/mL
same,solubility,[4]; water,≥ 41000 µg/mL
same,hydrate type from moisture sorption/desorption analysis,[5],variable hydrate
same,solid form of post moisture sorption/desorption sample by XRPD,[5],form A
same,molecules of water present for every molecule of compound,[5],approximately 1
same,Weight Change,[5]; [6],−3.77%
same,Weight Change,[5]; [7],−1.44%
same,initial weight loss from ambient conditions to 5% RH,[5]; moisture sorption/desorption,approximately 1.4%
same,weight gain between 5% and 95% RH,[5]; moisture sorption/desorption,about 4.00%
same,Weight Change,[5]; [8],4.00%
"N#Cc1ccccc1Cn1c(N2CCC[C@@H](N)C2)ncc(F)c1=O [Form B, tartrate salt of 2-[2-(3-(R)-amino-piperidin-1-yl)-5-fluoro-6-oxo-6H-pyrimidin-1-ylmethyl]-benzonitrile]",XRPD Result after slurry,[1],Form A
same,solid form of post moisture sorption/desorption sample by XRPD,[5],form C
same,Weight Change,[5]; [6],−6.30%
same,Weight Change,[5]; [7],−0.50%
same,initial weight loss from ambient conditions to 5% RH,[5]; moisture sorption/desorption,approximately 0.5%
same,weight gain between 5% and 95% RH,[5]; moisture sorption/desorption,6.6%
same,Weight Change,[5]; [8],6.64%
"N#Cc1ccccc1Cn1c(N2CCC[C@@H](N)C2)ncc(F)c1=O [Form C, tartrate salt of 2-[2-(3-(R)-amino-piperidin-1-yl)-5-fluoro-6-oxo-6H-pyrimidin-1-ylmethyl]-benzonitrile]",XRPD Result after slurry,[1],Form A
same,solid form of post moisture sorption/desorption sample by XRPD,[5],form C
same,Weight Change,[5]; [9],−0.899%
same,Weight Change,[5]; [10],−0.873%
same,Weight Change,[5]; [11],4.744%
same,molecules of water present for every molecule of compound,[5],approximately 1.5
same,initial weight loss from ambient conditions to 5% RH,[5]; moisture sorption/desorption,approximately 0.9%
same,weight gain between 5% and 95% RH,[5]; moisture sorption/desorption,5.7%
"N#Cc1ccccc1Cn1c(N2CCC[C@@H](N)C2)ncc(F)c1=O [Form D, tartrate salt of 2-[2-(3-(R)-amino-piperidin-1-yl)-5-fluoro-6-oxo-6H-pyrimidin-1-ylmethyl]-benzonitrile]",XRPD Result after slurry,[1],Form A
"N#Cc1ccccc1Cn1c(N2CCC[C@@H](N)C2)ncc(F)c1=O [Form E, tartrate salt of 2-[2-(3-(R)-amino-piperidin-1-yl)-5-fluoro-6-oxo-6H-pyrimidin-1-ylmethyl]-benzonitrile]",solid form of post moisture sorption/desorption sample by XRPD,[5],form C
same,Weight Change,[5]; [9],0.098%
same,Weight Change,[5]; [10],−0.352%
same,Weight Change,[5]; [11],8.801%
same,initial weight loss from ambient conditions to 5% RH,[5]; moisture sorption/desorption,approximately 0.4%
same,weight gain between 5% and 95% RH,[5]; moisture sorption/desorption,9.2%
"N#Cc1ccccc1Cn1c(N2CCC[C@@H](N)C2)ncc(F)c1=O [amorphous Form 1, tartrate salt of 2-[2-(3-(R)-amino-piperidin-1-yl)-5-fluoro-6-oxo-6H-pyrimidin-1-ylmethyl]-benzonitrile]",XRPD Pattern after RH stress,[3]; 6% RH stress,Amorphous
same,XRPD Pattern after RH stress,[3]; 33% RH stress,Amorphous
same,XRPD Pattern after RH stress,[3]; 58% RH stress,Amorphous
same,XRPD Pattern after RH stress,[3]; 75% RH stress,Form B
same,XRPD Pattern after RH stress,[3]; 84% RH stress,Pattern F
same,solid form of post moisture sorption/desorption sample by XRPD,[5],tentatively identified as containing form A
same,Weight Change,[5]; [9],0.868%
same,Weight Change,[5]; [10],−0.054%
same,Weight Change,[5]; [11],13.393%
same,initial weight gain from ambient conditions to 5% RH,[5]; moisture sorption/desorption,approximately 0.2%
same,weight gain between 5% and 95% RH,[5]; moisture sorption/desorption,5.8%
same,weight gain between 5% and 95% RH,"[5]; moisture sorption/desorption, listed as freeze dried Compound I",~13.5%
"N#Cc1ccccc1Cn1c(N2CCC[C@@H](N)C2)ncc(F)c1=O [amorphous Form 2, tartrate salt of 2-[2-(3-(R)-amino-piperidin-1-yl)-5-fluoro-6-oxo-6H-pyrimidin-1-ylmethyl]-benzonitrile]",Weight Change,[5]; [9],0.433%
same,Weight Change,[5]; [10],0.156%
same,Weight Change,[5]; [11],6.013%
